Columns and labels:
[1] = test system: A. baumannii strain 5075 (AB5075); assay: Clarithromycin potentiation against AB5075 (CLR MIC in presence of adjuvant); assay type: cell-based, Acinetobacter baumannii; details: for Clarithromycin (CLR) MIC / Fold Reduction of CLR MIC: AB5075
[2] = test system: A. baumannii strain 5075 (AB5075); assay: Standalone MIC against AB5075 (compound or antibiotic alone); assay type: cell-based, Acinetobacter baumannii; set-up: MIC against AB5075 (inherent anti-bacterial activity): unit not given beside the values; details: compound alone; for MIC: Acinetobacter baumannii, AB5075; for MIC against AB5075 (inherent anti-bacterial activity): newly synthesized material
From the text: Dimers were first analyzed for standalone toxicity against AB5075.

[3] = test system: AB5075; assay: Potentiation of azithromycin, erythromycin and rifampin against AB5075; assay type: cell-based, Acinetobacter baumannii; details: AB5075, adjuvant at ≤30% their MIC
[4] = test system: AB 5075; assay: Colistin MIC in absence or presence of compounds against AB 5075; assay type: cell-based, Acinetobacter baumannii; details: adjuvant at 30 μM, AB5075
From the text: However, dropping LOS comes with fitness costs such as reduced growth rates, lower virulence, and increased sensitivity towards certain antibiotics.

[5] = Microsomal (metabolic) stability; assay type: in vitro ADME; details: 60 minutes
[6] = Plasma stability; assay type: in vitro ADME; details: 4 hours

Clarithromycin (CLR) MIC ([1]; adjuvant at 7.5 μM) [µg/mL]	Fold Reduction of CLR MIC ([1]; adjuvant at 7.5 μM) [fold]	Clarithromycin (CLR) MIC ([1]; adjuvant at 10 μM) [µg/mL]	Fold Reduction of CLR MIC ([1]; adjuvant at 10 μM) [fold]	Clarithromycin (CLR) MIC ([1]; adjuvant at 20 μM) [µg/mL]	Fold Reduction of CLR MIC ([1]; adjuvant at 20 μM) [fold]	Clarithromycin (CLR) MIC ([1]; adjuvant at 30 μM) [µg/mL]	Fold Reduction of CLR MIC ([1]; adjuvant at 30 μM) [fold]	MIC [2] [µM]	Clarithromycin (CLR) MIC ([1]; adjuvant at 5 μM) [µg/mL]	Fold Reduction of CLR MIC ([1]; adjuvant at 5 μM) [fold]	Colistin MIC [4] [µg/mL]	MIC ([2]; value in brackets) [µg/mL]	MIC against AB5075 (inherent anti-bacterial activity) [2]	microsomal stability (in words) [5]	plasma stability (in words) [6]	SMILES	activity in combination with AZM, ERM and RIF (in words) [3]	CLR potentiation activity (in words) ([1]; AB5075, 30 μM)
1	32	0.5	64	0.0625	512	0.0625	512	> 200	–	–	–	–	–	–	–	Nc1nc(-c2cccc(NC(=O)Nc3cc(F)cc(-c4c[nH]c(N)n4)c3)c2)c[nH]1 [Compound 9l]	–	–
–	–	–	–	4	8	0.5	64	> 200	–	–	–	–	–	–	–	Nc1nc(-c2ccc(NC(=O)Nc3ccc(F)c(-c4c[nH]c(N)n4)c3)cc2F)c[nH]1 [Compound 9h]	–	–
–	–	–	–	–	–	32	1	> 200	–	–	–	–	–	–	–	Nc1nc(-c2ccc(F)c(NC(=O)Nc3cc(-c4c[nH]c(N)n4)ccc3F)c2)c[nH]1 [Compound 9e]	–	–
–	–	–	–	–	–	8	4	> 200	–	–	–	–	–	–	–	Nc1nc(-c2ccc(F)c(NC(=O)Nc3ccc(-c4c[nH]c(N)n4)c(F)c3)c2)c[nH]1 [Compound 9i]	–	–

The next lines start with the compound.

SMILES	Clarithromycin (CLR) MIC ([1]; adjuvant at 7.5 μM) [µg/mL]	Fold Reduction of CLR MIC ([1]; adjuvant at 7.5 μM) [fold]	Clarithromycin (CLR) MIC ([1]; adjuvant at 10 μM) [µg/mL]	Fold Reduction of CLR MIC ([1]; adjuvant at 10 μM) [fold]	Clarithromycin (CLR) MIC ([1]; adjuvant at 20 μM) [µg/mL]	Fold Reduction of CLR MIC ([1]; adjuvant at 20 μM) [fold]	Clarithromycin (CLR) MIC ([1]; adjuvant at 30 μM) [µg/mL]	Fold Reduction of CLR MIC ([1]; adjuvant at 30 μM) [fold]	MIC [2] [µM]	Clarithromycin (CLR) MIC ([1]; adjuvant at 5 μM) [µg/mL]	Fold Reduction of CLR MIC ([1]; adjuvant at 5 μM) [fold]	Colistin MIC [4] [µg/mL]	MIC ([2]; value in brackets) [µg/mL]	MIC against AB5075 (inherent anti-bacterial activity) [2]	microsomal stability (in words) [5]	plasma stability (in words) [6]	activity in combination with AZM, ERM and RIF (in words) [3]	CLR potentiation activity (in words) ([1]; AB5075, 30 μM)
Nc1nc(-c2ccc(NC(=O)Nc3ccc(-c4c[nH]c(N)n4)cc3F)c(F)c2)c[nH]1 [Compound 14a]	–	–	–	–	–	–	4	8	> 200	–	–	–	–	–	–	–	–	–
Nc1nc(-c2cc(NC(=O)Nc3ccc(F)c(-c4c[nH]c(N)n4)c3)ccc2F)c[nH]1 [Compound 9b]	1	32	0.5	64	0.25	128	0.125	256	> 200	2	16	–	–	–	–	–	–	–
Nc1nc(-c2ccc(NC(=O)Nc3cccc(-c4c[nH]c(N)n4)c3)cc2)c[nH]1 [Compound 4]	–	–	16	2	1	32	0.125	256	–	–	–	0.25	> 447	> 200	–	–	significant activity	–
Nc1nc(-c2cccc(NC(=O)Nc3cccc(-c4c[nH]c(N)n4)c3)c2)c[nH]1 [Compound 5]	1	32	0.5	64	0.0625	512	0.03125	1024	–	4	8	2	447	200	steady concentration over 60 minutes	steady concentration over 4 hours	significant activity	–
Nc1nc(-c2ccc(NC(=O)Nc3ccc(-c4c[nH]c(N)n4)c(C(F)(F)F)c3)cc2C(F)(F)F)c[nH]1 [Compound 9c]	–	–	–	–	–	–	2	16	> 200	–	–	–	–	–	–	–	–	abolished all activity
